# Test results published in patent US20210340526A1, “NOVEL METHOD FOR TRANSDUCING PROTEIN-PROTEIN INTERACTIONS” (ETH ZÜRICH, priority 2018, published 2021).
# pEC50: −log10 of the molar value.
# What was measured:
# CMV promoter = experiment: iRFP expression from constitutive promoter under stimulation, HEK cells; type: cell-based; details: 1 μM of procaterol or 2 μM of epinephrine versus DMEM without ligand
# Experimental: (§1) (a) iRFP fluorescence of HEK cells transfected with the plasmid expressing iRFP from the CMV promoter (white bar) or from the EF1α promoter (black bars). The reporter expression in DMEM without any ligand or in the presence of 1 μM of procaterol or 2 μM of epinephrine is shown as indicated. The bar charts display iRFP level normalized to the frequency of the transfection marker Citrine-positive cells (rel. u.) as mean±SD of independent biological triplicates. (b) Activity of the NarX/NarL expressed from CMV or EF1a promoters. Every transfection contains NarL-regulated mCerulean fluorescent protein reporter and plasmids expressing NarL and NarX from CMV, EF1α or EF1α-V1 promoters, as indicated in the chart.
# (§2) For any synthetic signalling system, it is important to avoid non-specific changes to the signalling readout. In the system of the invention, the components are expressed from constitutive promoters. However, these promoters are in fact controlled by highly-expressed transcription factors such as Sp1, and there is always a risk that these factors are directly affected by external stimuli via unrelated endogenous pathways. This would result in the change of constitutive expression, and apparent change in the signalling readout that is unrelated to the studied effect and is artefactual. To eliminate these confounding factors, the inventors examined a number of constitutive promoters for their robustness under various stimulation conditions and compared the expression of iRFP from the CMV and EF1α promoters in the presence of different compounds often used to induce cell signalling (Epinephrine and procaterol).
# EF1α promoter = experiment: as above; type: cell-based; details: 1 μM of procaterol or 2 μM of epinephrine versus DMEM without ligand
# Experimental: as §1, §2
# FKBP and FRB^T2098L = FKBP and FRB^T2098L (Homo sapiens, UniProt P42345+P62942, T2098L); experiment: two-component (NarX/NarL) reporter assay of ligand-induced FKBP/FRB heterodimerization in HEK293 cells; type: cell-based; details: pair FR::H^mut and FK::N^mut, NarL and NarL-activated mCerulean reporter, HEK293, Hill function fit of dose-response; read-out: EC50 in the context of the assay
# Source text: To enable bona fide signalling, the dimerization of the NarX domains should be preferably controlled by an external stimulus. Inducible protein-protein interaction is a common signalling mechanism both in the cytoplasm and across the membrane. A well characterized ligand-induced heterodimerization takes place between the proteins FK506-binding protein 12 (FKBP) and FKBP12-rapamycin binding domain (FRB) mutant FRB^T2098L in the presence of the small molecule A/C heterodimerize (a rapamycin analog Cl 6-(S)-7-methylindolerapamycin, known also as AP21967).
# To find out if NarX domains are capable of transducing this interaction (FIG. 3a), the complementing histidine and asparagine NarX mutants described above were fused at their N-terminus to the FKBP (FK) and the FRB^T2098L (FR) proteins, respectively, resulting in the fusions FK::NarX^379to598H399Q (FK::H^mut) and FR::NarX^379to598N509A (FR::N^mut), and the inverse pair FR::H^mut and FK::N^mut. […] Next, the inventors probed the ligand-induced signalling in a fashion similar to the one used for SynZip1-SynZip2 experiments, expressing different fusion variants and control constructs in HEK293 cells, in the presence of the response regulator NarL and NarL-activated reporter construct, this time with and without the ligand (FIG. 3b, FIG. 8). As expected, full length wild type NarX was constitutively active. […]
# NarX/NarL system = experiment: control: effect of ligand on NarX/NarL signalling in HEK cells; type: cell-based; details: 100 nM; HEK cells with NarX or NarX^379to598, NarL and NarL-activated reporter
# Experimental: To find out if NarX domains are capable of transducing this interaction (FIG. 3a), the complementing histidine and asparagine NarX mutants described above were fused at their N-terminus to the FKBP (FK) and the FRB^T2098L (FR) proteins, respectively, resulting in the fusions FK::NarX^379to598H399Q (FK::H^mut) and FR::NarX^379to598N509A (FR::N^mut), and the inverse pair FR::H^mut and FK::N^mut. […]
# The cells were prepared for FACS analysis 48 h after transfection by removing the medium and incubating the cells with 200 μl StemPro™ Accutase™ Cell Dissociation Reagent (Gibco, cat #A11105-01) at 37° C. for 5 minutes. […] The prepared samples were measured using a BD LSR Fortessa II Cell Analyzer with a combination of excitation and emission that minimizes the crosstalk between different fluorescent reporters. Cerulean was measured with a 445 nm laser and a 473/10 nm emission filter, mCherry with a 561 nm excitation laser coupled to a 600 nm longpass filter and 610/20 emission filter. The Cerulean and the mCherry were measured, respectively, at PMT voltage of 330 and 310 in all the experiments. […]
# [1] = molecular target: ADRB2^1to341::AVPR2^343to371::NarX^379to598 H399Q (UniProt P07550); experiment: cell-based or functional assay
# GPCR ADRB2-AVPR2 = molecular target: T1, GPCR ADRB2-AVPR2 (Homo sapiens, UniProt P07550, E27Q/G16R); experiment: two-component (NarX/NarL) reporter assay of GPCR/beta-arrestin interaction, pair ADRB2-AVPR2::H^mut and beta-arrestin::N^mut, in HEK293 cells; type: cell-based
# T1 construct: expressed in transfected cells; host or cells: HEK293
# Chain of FKBP and FRB^T2098L (P62942 whole entry, the tested form may be a part): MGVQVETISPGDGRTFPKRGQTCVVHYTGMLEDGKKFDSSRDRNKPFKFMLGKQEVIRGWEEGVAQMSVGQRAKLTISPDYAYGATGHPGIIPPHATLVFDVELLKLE
# Chain of FKBP and FRB^T2098L (P42345 2012-2144 T2098L limits assumed): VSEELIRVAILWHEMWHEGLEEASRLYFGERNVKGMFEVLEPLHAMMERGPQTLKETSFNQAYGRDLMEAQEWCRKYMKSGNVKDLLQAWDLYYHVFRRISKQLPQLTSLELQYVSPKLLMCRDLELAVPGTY
compound,measurement,setting,value
CNC[C@H](O)c1ccc(O)c(O)c1 [epinephrine],activity of the CMV promoter (iRFP expression),CMV promoter,induced by a factor of two
same,activity of the EF1α promoter (iRFP expression),EF1α promoter,not affected
Cl 6-(S)-7-methylindolerapamycin [A/C],pEC50,FKBP and FRB^T2098L,8.89
same,effect on signalling via the wild-type NarX/NarL system,NarX/NarL system,did not affect
ARRB2::NarX^379to598 N509A (from UniProt P32121 1-409),EC50 of the small-molecule agonist isoproterenol for reporter induction,[1],30 nM
same,EC50 of the small-molecule agonist procaterol for reporter induction,[1],5 nM
same,EC50 of the small-molecule partial agonist clenbuterol for reporter induction,[1],14 nM
same,IC50 of the small-molecule antagonist propranolol in the presence of procaterol (reporter),[1],2 nM
same,reporter expression with the partial agonist clenbuterol against the full agonists,[1],3.5 times lower
CCC(NC(C)C)C(O)c1ccc(O)c2[nH]c(=O)ccc12 (stereo not drawn) [procaterol],pEC50,"GPCR ADRB2-AVPR2; ADRB2-AVPR2::H^mut and beta-arrestin::N^mut, NarL-regulated mCerulean reporter, HEK293, read-out: EC50 from the dose-response curves",8.30
same,induction dynamic range of procaterol-triggered signalling,"GPCR ADRB2-AVPR2; complementary NarX mutants fused to the GPCR receptor and beta-arrestin, with versus without procaterol",above 3 orders of magnitude
same,maximum response of downstream gene expression,"GPCR ADRB2-AVPR2; saturating doses, full agonists",reach the same maximum response
same,activity of the CMV promoter (iRFP expression),CMV promoter,induced by a factor of two
same,activity of the EF1α promoter (iRFP expression),EF1α promoter,not affected
same,effect on signalling via the wild-type NarX/NarL system,NarX/NarL system,did not affect
